Biological target: T1, TAF1-BD2 (Homo sapiens, UniProt P21675)
T1 sequence (P21675 1525-1656): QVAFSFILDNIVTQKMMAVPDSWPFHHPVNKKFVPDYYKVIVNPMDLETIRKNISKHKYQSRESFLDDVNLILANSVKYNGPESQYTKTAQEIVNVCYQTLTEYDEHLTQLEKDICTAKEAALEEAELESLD
Assay: TAF1-BD2 TR-FRET Binding Assay
Settings: Assay: TAF-1
Protocol: Specifically, in a 384 well ProxiPlate TAF1-BD2 (6 nM final) was combined with biotin-ligand (50 nM final) in 50 mM HEPES (pH 7.5), 50 mM NaCl, 1 mM TCEP, 0.01% (w/v) BSA, and 0.008% (w/v) Brij-35 either in the presence of DMSO (final 0.2% DMSO) or compound dilution series in DMSO. After 10 minutes incubation at room temperature, a mixture Eu-W1024 Anti-6×His antibody (Perkin Elmer AD0110) and SureLight™ Allophycocyanin-Streptavidin (APC-SA, Perkin Elmer CR130-100) were added to a final concentrations of 0.2 nMolar antibody and 25 nMolar APC-SA, respectively. After twenty minutes of equilibration, the plates were read on an Envision instrument and IC50s calculated using a four parameter non-linear curve fit.

Compound	IC50 [nM]
CC(C)N1CC[C@@H](NC(=O)c2cn(C)c(=O)c3[nH]ccc23)[C@H](F)C1 (relative stereo) [Example 209]	580
CC(C)N1CC[C@H](NC(=O)c2cn(C)c(=O)c3[nH]ccc23)[C@H](C)C1 (relative stereo) [Example 238]	2100
CC(C)N1CC[C@H](NC(=O)c2cn(C)c(=O)c3[nH]ccc23)[C@H](F)C1 (relative stereo) [Example 240]	3400
CN1CCC(NC(=O)c2cn(C)c(=O)c3[nH]ccc23)CC1 [Example 4, 6-methyl-N-(1-methyl-4-piperidyl)-7-oxo-1H-pyrrolo[2,3-c]pyridine-4-carboxamide]	320
CC=CCn1cc(C(=O)NCC2CN(C(=O)OC(C)(C)C)C2)c2cc[nH]c2c1=O [Example 10, tert-butyl 3-[[(6-but-2-enyl-7-oxo-1H-pyrrolo[2,3-c]pyridine-4-carbonyl)amino]methyl]azetidine-1-carboxylate]	4700
CC=CCn1cc(C(=O)NCCNC(C)=O)c2cc[nH]c2c1=O [Example 14, N-(2-acetamidoethyl)-6-but-2-enyl-7-oxo-1H-pyrrolo[2,3-c]pyridine-4-carboxamide]	3700
CC=CCn1cc(C(=O)NC(C)(C)C)c2cc[nH]c2c1=O [Example 15, 6-but-2-enyl-N-tert-butyl-7-oxo-1H-pyrrolo[2,3-c]pyridine-4-carboxamide]	970
CC=CCn1cc(C(=O)NCCN2CCN(Cc3ccccc3)CC2)c2cc[nH]c2c1=O [Example 16, N-[2-(4-benzylpiperazin-1-yl)ethyl]-6-but-2-enyl-7-oxo-1H-pyrrolo[2,3-c]pyridine-4-carboxamide]	6000
CC=CCn1cc(C(=O)NCCCNC(=O)OCc2ccccc2)c2cc[nH]c2c1=O [Example 17, benzyl N-[3-[(6-but-2-enyl-7-oxo-1H-pyrrolo[2,3-c]pyridine-4-carbonyl)amino]propyl]carbamate]	3600
Cn1cc(C(=O)NCCC2CCN(CC(F)(F)F)CC2)c2cc[nH]c2c1=O [Example 20, 6-methyl-7-oxo-N-[2-[1-(2,2,2-trifluoroethyl)-4-piperidyl]ethyl]-1H-pyrrolo[2,3-c]pyridine-4-carboxamide]	1500
CN1CCCC(CNC(=O)c2cn(C)c(=O)c3[nH]ccc23)C1 (stereo not drawn) [Example 24, 6-methyl-N-[(1-methyl-3-piperidyl)methyl]-7-oxo-1H-pyrrolo[2,3-c]pyridine-4-carboxamide]	150
CN1CCC(CCNC(=O)c2cn(C)c(=O)c3[nH]ccc23)CC1 [Example 25, 6-methyl-N-[2-(1-methyl-4-piperidyl)ethyl]-7-oxo-1H-pyrrolo[2,3-c]pyridine-4-carboxamide]	690
CCN1CCC(CN(C)C(=O)c2cn(C)c(=O)c3[nH]ccc23)C1 (stereo not drawn) [Example 27, N-[(1-ethylpyrrolidin-3-yl)methyl]-N,6-dimethyl-7-oxo-1H-pyirolo[2,3-c]pyridine-4-carboxamide]	6900
Cn1cc(C(=O)NCC(C)(C)N2CCOCC2)c2cc[nH]c2c1=O [Example 36, 6-methyl-N-(2-methyl-2-morpholino-propyl)-7-oxo-1H-pyrrolo [2,3-c]pyridine-4-carboxamide]	1700
CN(C)C1CCN(C(=O)c2cn(C)c(=O)c3[nH]ccc23)CC1 [Example 40, 4-[4-(dimethylamino)piperidine-1-carbonyl]-6-methyl-1H-pyrrolo[2,3-c]pyridin-7-one]	69
Cn1cc(C(=O)NC2CCN(c3ccccn3)CC2)c2cc[nH]c2c1=O [Example 42, 6-methyl-7-oxo-N-[1-(2-pyridyl)-4-piperidyl]-1H-pyrrolo[2,3-c]pyridine-4-carboxamide]	210
Cn1cc(C(=O)NC2CCN(C3CCCC3)CC2)c2cc[nH]c2c1=O [Example 43, N-(1-cyclopentyl-4-piperidyl)-6-methyl-7-oxo-1H-pyrrolo[2,3-c]pyridine-4-carboxamide]	720
Cn1cc(C(=O)NC2CCN(c3ncccn3)CC2)c2cc[nH]c2c1=O [Example 44, 6-methyl-7-oxo-N-(1-pyrimidin-2-yl-4-piperidyl)-1H-pyrrolo[2,3-c]pyridine-4-carboxamide]	340
Cn1cc(C(=O)N2CCC(C(C)(C)C)CC2)c2cc[nH]c2c1=O [Example 47, 4-(4-tert-butylpiperidine-1-carbonyl)-6-methyl-1H-pyrrolo[2,3-c]pyridin-7-one]	2300
Cn1cc(C(=O)N2CCC(c3ccc(Cl)cc3)CC2)c2cc[nH]c2c1=O [Example 48, 4-[4-(4-chlorophenyl)piperidine-1-carbonyl]-6-methyl-1H-pyrrolo[2,3-c]pyridin-7-one]	1500

Biological target: T2, CECR2 (Homo sapiens, UniProt Q9BXF3)
T2 construct: 424-538 was cloned, expressed, and purified to homogeneity; Flag; made in house
Assay: CECR2 TR-FRET Binding Assay
Settings: read-out: IC50
Source text: IC50 Measurements for Inhibitors Using CECR2 TR-FRET Binding Assay

T2 sequence (Q9BXF3 424-538 limits assumed): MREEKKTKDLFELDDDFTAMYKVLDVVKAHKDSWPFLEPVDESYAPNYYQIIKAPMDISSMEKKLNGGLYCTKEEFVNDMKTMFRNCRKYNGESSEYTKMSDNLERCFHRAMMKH

Compound	IC50 [nM]
CN(C(=O)c1cn(C)c(=O)c2[nH]ccc12)C1CCN(Cc2ccccc2Cl)CC1 [Example 223]	970
CN(C(=O)c1cn(C)c(=O)c2[nH]ccc12)C1CCN(Cc2cccc(Cl)c2)CC1 [Example 224]	780
COCCN1CCC(N(C)C(=O)c2cn(C)c(=O)c3[nH]ccc23)CC1 [Example 225]	1400
CN(C(=O)c1cn(C)c(=O)c2[nH]ccc12)C1CCN(CCC2CC2)CC1 [Example 226]	700
CCN(C(=O)c1cn(C)c(=O)c2[nH]ccc12)C1CCN(C(C)C)CC1 [Example 227]	2000
CN(CC1CCN(CCC2CCCCC2)CC1)C(=O)c1cn(C)c(=O)c2[nH]ccc12 [Example 229]	640
CN(CC1CCN(CC2CCCOC2)CC1)C(=O)c1cn(C)c(=O)c2[nH]ccc12 (stereo not drawn) [Example 230]	790
COCCCN1CCC(CN(C)C(=O)c2cn(C)c(=O)c3[nH]ccc23)CC1 [Example 232]	1200
CN(CC1CCN(CC2CCC2)CC1)C(=O)c1cn(C)c(=O)c2[nH]ccc12 [Example 233]	770
CN(CC1CCN(CC2CCOCC2)CC1)C(=O)c1cn(C)c(=O)c2[nH]ccc12 [Example 234]	1000
CC(C)N1CCCC(NC(=O)c2cn(C)c(=O)c3[nH]ccc23)CC1 (stereo not drawn) [Example 241]	1100
CC(C)N1C2CCC1CC(N(C)C(=O)c1cn(C)c(=O)c3[nH]ccc13)C2 (stereo not drawn) [Example 242]	1400
CC(C)N1CCC(N(C(=O)c2cn(C)c(=O)c3[nH]ccc23)C2CC2)CC1 [Example 243]	2000
C=CCn1cc(C(=O)N(C)[C@H]2[C@@H]3CN(c4ccnc(C#N)n4)C[C@@H]32)c2cc[nH]c2c1=O [Example 249, 6-allyl-N-[(1S,5R)-3-(2-cyanopyrimidin-4-yl)-3-azabicyclo[3.1.0]hexan-6-yl]-N-methyl-7-oxo-1H-pyrrolo[2,3-c]pyridine-4-carboxamide]	4800
C=CCn1cc(C(=O)N(C)C2C3CN(c4ccncn4)CC32)c2cc[nH]c2c1=O (stereo not drawn) [Example 251]	6200
CN(C(=O)c1cn(C)c(=O)c2[nH]ccc12)C1CCN(CCc2ccccc2F)CC1 [Example 253]	980

Compound	IC50 [nM]
CN(C(=O)c1cn(C)c(=O)c2[nH]ccc12)C1CCN(CCc2ccc(Cl)cc2)CC1 [Example 254]	700
C=CCn1cc(C(=O)N(C)C2CCN(c3cc(C4CC4)nc(C)n3)CC2)c2cc(C)[nH]c2c1=O [Example 266]	30
C=CCn1cc(C(=O)N(C)C2CCN(c3cc(C)nc(C4CC4)n3)CC2)c2cc(C)[nH]c2c1=O [Example 267, 6-allyl-N-(1-(2-cyclopropyl-6-methylpyrimidin-4-yl)piperidin-4-yl)-N,2-dimethyl-7-oxo-6,7-dihydro-1H-pyrrolo[2,3-c]pyridine-4-carboxamide]	17
C=CCn1cc(C(=O)N(C)C2CCN(c3cc(-c4cccnc4C)ncn3)CC2)c2cc(C)[nH]c2c1=O [Example 268, 6-allyl-N,2-dimethyl-N-[1-[6-(2-methyl-3-pyridyl)pyrimidin-4-yl]-4-piperidyl]-7-oxo-1H-pyrrolo[2,3-c]pyridine-4-carboxamide]	23
C=CCn1cc(C(=O)N(C)C2CCN(c3cc(-c4ccco4)ncn3)CC2)c2cc(C)[nH]c2c1=O [Example 269]	33
C=CCn1cc(C(=O)N(C)C2CCN(c3cc(-c4ccccc4Cl)ncn3)CC2)c2cc(C)[nH]c2c1=O [Example 270]	18
C=CCn1cc(C(=O)N(C)C2CCN(c3cc(-c4ccccn4)ncn3)CC2)c2cc(C)[nH]c2c1=O [Example 271, 6-allyl-N,2-dimethyl-7-oxo-N-[1-[6-(2-pyridyl)pyrimidin-4-yl]-4-piperidyl]-1H-pyrrolo[2,3-c]pyridine-4-carboxamide]	11
C=CCn1cc(C(=O)N(C)C2CCN(c3cc(-c4ncccc4C)ncn3)CC2)c2cc(C)[nH]c2c1=O [Example 272]	35
C=CCn1cc(C(=O)N(C)C2CCCc3ccccc32)c2cc(C)[nH]c2c1=O (stereo not drawn) [Example 275, 6-allyl-N,2-dimethyl-7-oxo-N-tetralin-1-yl-1H-pyrrolo[2,3-c]pyridine-4-carboxamide]	110
C=CCn1cc(C(=O)N(C)C2CCCc3ncccc32)c2cc(C)[nH]c2c1=O (stereo not drawn) [Example 276]	38
C=CCn1cc(C(=O)N(C)C2CCOc3ccccc32)c2cc(C)[nH]c2c1=O (stereo not drawn) [Example 277]	53
C=CCn1cc(C(=O)N(C)C2CCOc3cc(F)ccc32)c2cc(C)[nH]c2c1=O (stereo not drawn) [Example 278]	57
C=CCn1cc(C(=O)N(C)C2CCCc3cnccc32)c2cc(C)[nH]c2c1=O (stereo not drawn) [Example 283, 6-allyl-N,2-dimethyl-7-oxo-N-(5,6,7,8-tetrahydroisoquinolin-5-yl)-1H-pyrrolo[2,3-c]pyridine-4-carboxamide]	44
C=CCn1cc(C(=O)N(C)C2CCCc3ccc(F)cc32)c2cc(C)[nH]c2c1=O (stereo not drawn) [Example 284]	53
C=CCn1cc(C(=O)N(C)C2CCCc3c(C)cccc32)c2cc(C)[nH]c2c1=O (stereo not drawn) [Example 285]	150

— patent US10258603B2 (priority 2014, dated 2019)
